The numbers were not newly measured in US5700484A, “Sustained release microparticulate caffeine formulation” (Nestec S.A., priority 1996, dated 1997), which cites them from elsewhere.

For this data set the following is noted: 350 mg caffeine oral, aqueous solution.

For `Cn1c(=O)c2c(ncn2C)n(C)c1=O` [caffeine, 1,3,7-trimethyl xanthine], the maximum plasma level entry was “approximately 8.3 μg/ml”.
